Experimental data taken from patent US20220264878A1, “HERBICIDAL COMPOSITION CONTAINING R-TYPE PYRIDYLOXY CARBOXYLIC ACID DERIVATIVE AND USE THEREOF” (Qingdao Kingagroot Chemical Compound Co., Ltd., priority 2019, published 2022).

Legend:
Assay in all cases: Post-emergence foliage spray, pot culture, fresh weight inhibition (Tables 1-48, 51-98, 101-148; 24 days)
Type in all cases: in vivo
Solanum nigrum = tested on: Solanum nigrum
Description: (§1) Table 1-48, 51-98, 101-148: Echinochloa crusgalli var. zelayensis, Eclipta prostrate, Galium aparine L., Alopecurus aequalis, Alopecurus japonicus, Lindernia procumbens, Veronica persica^1, Malachium aquaticum, Beckmannia syzigachne, Stellaria media were collected in Huai'an of Jiangsu Province; Commelina communis, Sonchus arvensis, Setaria glauca, Chloris virgata, Setaria faberi, Sonchus oleraceus L., Echinochloa oryzoides, Cirsium setosum, Xanthium strumarium were collected in Qiqiha'er of Heilongjiang Province; Sinapis arvensis, Veronica persica^2 were collected in Zhumadian of Henan Province; Ludwigia prostrate, Ammannia arenaria were collected in Zhuji of Zhejiang Province; Amaranthus retrojlexus, Descurainia sophia, Digitaria sanguinalis, Setaria viridis, Conyza Canadensis, Capsella bursa-pastoris, Eleusine indica, Ipomoea purpurea, Abutilon theophrasti, Chenopodium album, Acalypha australis, Solanum nigrum were collected in Qingdao of Shandong Province; Echinochloa caudate were collected in Pingluo of Ningxia Province.
(§2) The above weeds were cultivated by a pot culture method. […] Full and uniform weed seeds were selected, soaked in warm water at 25° C. for 6 hours, and germinated in a 28° C. biochemical incubator (darkness). The weed seeds that had just germinatedwere evenly placed on the surface of the soil and then covered with 0.5-1 cm soil according to the sizes of seeds.
(§3) The culture was carried out in a controllable sunlight greenhouse at 20 to 30° C., in natural light, and relative humidity of 57% to 72%.
(§4) The technical materials were all dissolved in acetone, and diluted with an aqueous solution containing 0.1% emulsifier Tween-80. The dilution is performed as required.
(§5) A ratio of the active ingredient A to the active ingredient B and amounts thereof in each group depends on the characteristics and toxicity of the two agents, as well as the main application purpose of a corresponding formulation. Based on the pre-tests in this study, the dosage of the active ingredient A and B applied alone and in combination were shown in the tables. Water containing the solvent and emulsifier same with the above groups but free of the agents was used as a blank control.
(§6) Table 1-48, 51-98, 101-148, 151-206: […] per treatment, that is, a total of 60 weeds were treated in one treatment.
(§7) Table 1-48, 51-98, 101-148: The agents were used for only once in the experiment. In the stage of weeds with 3˜4 leaves, the weeds were thinned out to maintain 15 weeds per pot and 45 weeds for each treatment, then continued to be cultured to 5˜6 leaves stage of grassy weeds, 6˜7 leaves stage of broadleaf weeds, and treated.
(§8) The well-cultured weeds were evenly placed on a platform with an area of 0.5 m^2, and a solution of agents was sprayed on the stems and leaves thereof by the 3WP-2000-type walking spray tower at a dosage of 450 kg/ha and at a spray pressure of 0.3 MPa. After all the solution was sprayed, the valve was closed. After 30 seconds, the door of the spray tower was opened, and the nutritional bowl was taken out. Then the valve was opened, and the spray tube was cleaned by spraying 50 ml of water.
(§9) A pot-culture method was employed. For the cultivation of weeds, please refer to the Section 1.1), and “Pesticide guidelines for laboratory bioactivity tests—herbicides”. As to a method for applying agents, please refer to the section 2.3.2), that is, a foliage treatment was employed. After the treatment, the weeds were routinely cultured in a greenhouse.
(§10) A method for investigating absolute number was employed, wherein whole seedlings of survival weeds were cut off with a blade along the soil surface, and the fresh weight of the weeds was weighed with an analytical balance. For dead weeds, the fresh weight thereof was zero.
(§11) Table 1-48, 51-98, 101-148, 207-216: The investigation was performed after 24 days of the treatment for only once.

[1] = tested on: Veronica persica^2 (collected in Zhumadian of Henan Province)
Description: as §1, §2, §3, §4, §5, §6, §7, §8, §9, §10, §11

Chloris virgata = tested on: Chloris virgata
Description: as §1, §2, §3, §4, §5, §6, §7, §8, §9, §10, §11

Eleusine indica = settings: Table 79
Description: as §1, §2, §3, §4, §5, §6, §7, §8, §9, §10, §11

Compound: CCOC(=O)C(Cl)Cc1cc(-n2nc(C)n(C(F)F)c2=O)c(F)cc1Cl (stereo not drawn) [carfentrazone-ethyl]
- Control effect (%) of B applied alone in corresponding dose (Solanum nigrum; B 1.875 g a.i./ha): 6.3%
- Control effect (%) of B applied alone in corresponding dose (Solanum nigrum; B 3.75 g a.i./ha): 12.1%
- Control effect (%) of B applied alone in corresponding dose (Solanum nigrum; B 7.5 g a.i./ha): 38.0%
- Control effect (%) of B applied alone in corresponding dose (Solanum nigrum; B 15 g a.i./ha): 68.7%
- Control effect (%) of B applied alone in corresponding dose ([1]; Table 90, 1.875 g a.i./ha): 2.6%
- Control effect (%) of B applied alone in corresponding dose ([1]; Table 90, 3.75 g a.i./ha): 11.6%
- Control effect (%) of B applied alone in corresponding dose ([1]; Table 90, 7.5 g a.i./ha): 36.2%
- Control effect (%) of B applied alone in corresponding dose ([1]; Table 90, 15 g a.i./ha): 68.2%

Compound: O=C(Nc1ccc(F)cc1F)c1cccnc1Oc1cccc(C(F)(F)F)c1 [diflufenican]
- Control effect (%) of B applied alone in corresponding dose (Solanum nigrum; B 15 g a.i./ha): 6.0%
- Control effect (%) of B applied alone in corresponding dose (Solanum nigrum; B 30 g a.i./ha): 15.0%
- Control effect (%) of B applied alone in corresponding dose (Solanum nigrum; B 60 g a.i./ha): 41.7%
- Control effect (%) of B applied alone in corresponding dose (Solanum nigrum; B 120 g a.i./ha): 76.5%
- Control effect (%) of B applied alone in corresponding dose ([1]; Table 87, 15 g a.i./ha): 2.3%
- Control effect (%) of B applied alone in corresponding dose ([1]; Table 87, 30 g a.i./ha): 10.2%
- Control effect (%) of B applied alone in corresponding dose ([1]; Table 87, 60 g a.i./ha): 40.3%
- Control effect (%) of B applied alone in corresponding dose ([1]; Table 87, 120 g a.i./ha): 76.2%

Compound: CCn1ncc(C(=O)c2ccc(S(C)(=O)=O)c(COCC(F)(F)F)c2Cl)c1OC(=O)c1cn(C)nc1C [fenpyrazone]
- Control effect (%) of B applied alone in corresponding dose (Chloris virgata; B 7.5 g a.i./ha): 5.5%
- Control effect (%) of B applied alone in corresponding dose (Chloris virgata; B 15 g a.i./ha): 14.8%
- Control effect (%) of B applied alone in corresponding dose (Chloris virgata; B 30 g a.i./ha): 39.9%
- Control effect (%) of B applied alone in corresponding dose (Chloris virgata; B 60 g a.i./ha): 79.2%
- Control effect (%) of B applied alone in corresponding dose (Eleusine indica; 7.5 g a.i./ha): 2.9%
- Control effect (%) of B applied alone in corresponding dose (Eleusine indica; 15 g a.i./ha): 10.9%
- Control effect (%) of B applied alone in corresponding dose (Eleusine indica; 30 g a.i./ha): 38.6%
- Control effect (%) of B applied alone in corresponding dose (Eleusine indica; 60 g a.i./ha): 79.1%
